Source: patent US9440957B2, “Compounds and compositions for modulating EGFR Activity” (Novartis AG, priority 2012, dated 2016)
Read-outs that look alike come from different tables or passages of the source.

Experiments:
[1] = molecular target: human EGFR L858R/T790M (NIH/3T3 cells) (Homo sapiens, UniProt P00533, L858R/T790M); assay: EGFR target modulation in engineered NIH/3T3 cell lines (phospho-EGFR Y1068 AlphaLISA), EGFR L858R/T790M; type: cell-based; conditions: engineered NIH/3T3 cells, read-out: NIH3T3 IC50 (μM) EGFR (L858R/T790M)
Outline: (§1)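 Engineered NIH/3T3 cells expressing EGFR variants treated 3 h at 37 °C with 12-point 1:3 compound series (top stock 10 μM); only WT cells stimulated with 50 ng/ml EGF for 5 min before lysis. Phospho-Y1068 measured by AlphaLISA with total-EGFR antibody; IC50 from non-linear fitting.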

H1975 (EGFR L858/T790M) = H1975 (EGFR L858/T790M) (Homo sapiens, UniProt P00533, L858R/T790M); assay: EGFR target modulation in H1975 cell line (phospho-EGFR Y1173 ELISA); type: cell-based
Description: (§2) EGFR Target Modulation in H1975, H3255 and HCC827 Cell Lines Tissue Culture. Cells were maintained in 10% FBS/RPMI supplemented with 100 μg/ml Penicillin/Streptomycin (Hyclone #SH30236.01). […] The cells were allowed to incubate overnight in a 37° C., 5% CO2 humidified tissue culture incubator. […] The serial diluted compounds were transferred to the plate containing cells by using a 50 nl Pin Head device (Perkin Elmer) and the cells were placed back in the incubator for 3 hours. Phospho-EGFR ([…]) Target Modulation Assay. The media was reduced to 20 ul using a Bio-Tek ELx 405 SelectTM plate washer. […] The plates were shaken at 4° C. for 20 minutes. An aliquot of 25 ul from each well was transferred to pEGFR(Y1173) ELISA plates for analysis. Phospho-EGFR ([…]) ELISA. Solid white high-binding ELISA plates (Greiner #781074) were coated with 5 ug/ml anti-EGFR capture antibody (R&D Systems #AF231) overnight in 50 mM carbonate/bicarbonate pH 9.5 buffer. Plates were blocked with 1% BSA (Sigma #A7030) in PBS for 1 hour at room temperature. Wash steps were carried out with a Bio-Tek ELx405 SelectTM using 4 cycles of 100 ul TBS-T (20 mM Tris, 137 mM NaCl, 0.05% Tween-20) per well. […] Lysis was allowed to occur for 20 minutes on ice. A 25 ul aliquot was added to each well of the blocked ELISA plate and incubated overnight at 4° C. with gentle shaking. […] After washing, 1:2,000 anti-rabbit-HRP (Cell Signaling #7074) in 0.2% BSA/TBS-T was added and incubated for 1 hour at room temperature. Chemiluminescent detection was carried out with SuperSignal ELISA Pico substrate (ThermoScientific #37069). Signal was read on EnVision plate reader using built-in UltraLUM setting. Data Analysis. Control cells treated with EGF were set to 100% maximum response. […] With these parameters, the IC50's for each compound in each cell line was calculated using non-linear curve fitting analysis.

[2] = molecular target: human EGFR L858R (NIH/3T3 cells) (Homo sapiens, UniProt P00533, L858R); assay: EGFR target modulation in engineered NIH/3T3 cell lines (phospho-EGFR Y1068 AlphaLISA), EGFR L858R; type: cell-based; conditions: engineered NIH/3T3 cells, read-out: NIH3T3 IC50 (μM) EGFR (L858R)
Outline: as §1

[3] = molecular target: human EGFR WT (NIH/3T3 cells, EGF-induced) (Homo sapiens, UniProt P00533); assay: EGFR target modulation in engineered NIH/3T3 cell lines (phospho-EGFR Y1068 AlphaLISA), EGFR WT; type: cell-based; conditions: engineered NIH/3T3 cells, read-out: NIH3T3 IC50 (μM) EGFR (WT)
Outline: as §1

EGFR(L858R/T790M) = molecular target: T1, EGFR(L858R/T790M) (Homo sapiens, UniProt P00533, L858R/T790M); assay: EGFR biochemical assay (HTRF), IC50 determinations
T1 construct: purchased from Carna (GST-a.a. 669-1210)
Outline: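 Two formats were run: compound preincubated at room temperature with enzyme and biotin-TK peptide before ATP starts the reaction, or no preincubation with enzyme added last. Reactions ran 60 min at room temperature and were stopped with EDTA. Phosphopeptide was read by HTRF (PT66K/SAXL, 1 h).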

H3255 (EGFR L858R) = H3255 (EGFR L858R) (Homo sapiens, UniProt P00533, L858R); assay: EGFR target modulation in H3255 cell line (phospho-EGFR Y1173 ELISA); type: cell-based
Description: as §2

HEKn (EGFR WT) = HEKn (EGFR WT) (Homo sapiens, UniProt P00533); assay: EGFR target modulation in HEKn (EGFR-WT) cell line (phospho-EGFR Y1173 ELISA); type: cell-based; conditions: value outside parentheses
Description: EGFR Target Modulation in HEKn (EGFR-WT) Cell Line Tissue Culture. Human neonatal epithelial keratinocytes (Invitrogen #C-001-5C) were maintained in EpiLife media (Invitrogen #[…]) supplemented with growth factors (Invitrogen #S-001-5). Cells were harvested with 0.05% Trypsin/EDTA (Hyclone #SH30236.01) and quenched with 5% FBS/EpiLife media. […] The serial diluted compounds were transferred to the plate containing cells by using a 50 nl Pin Head device (Perkin Elmer) and the cells were placed back in the incubator for 3 hours. […] Phospho-EGFR (Y1173) ELISA. Solid white high-binding ELISA plates (Greiner #781074) were coated with 5 ug/ml anti-EGFR capture antibody (R&D Systems #AF231) overnight in 50 mM carbonate/bicarbonate pH 9.5 buffer. […] Wash steps were carried out with a Bio-Tek ELx405 SelectTM using 4 cycles of 100 ul TBS-T (20 mM Tris, 137 mM NaCl, 0.05% Tween-20) per well. […] Lysis was allowed to occur for 20 minutes on ice. A 25 ul aliquot was added to each well of the blocked ELISA plate and incubated overnight at 4° C. with gentle shaking. […] After washing, 1:2,000 anti-rabbit-HRP (Cell Signaling #7074) in 0.2% BSA/TBS-T was added and incubated for 1 hour at room temperature. Chemiluminescent detection was carried out with SuperSignal ELISA Pico substrate (ThermoScientific #37069). Signal was read on EnVision plate reader using built-in UltraLUM setting. Data Analysis. Control cells treated with EGF were set to 100% maximum response. […] With these parameters, the IC50's for each compound in each cell line was calculated using non-linear curve fitting analysis.

[4] = EGFR (L858R/T790M) with 90 min pre-incubation, read-out: IC50 (μM) Column B
[5] = EGFR (L858R/T790M) with no pre-incubation, read-out: IC50 (μM) Column A

Sequence of HEKn (EGFR WT) (P00533 25-1210): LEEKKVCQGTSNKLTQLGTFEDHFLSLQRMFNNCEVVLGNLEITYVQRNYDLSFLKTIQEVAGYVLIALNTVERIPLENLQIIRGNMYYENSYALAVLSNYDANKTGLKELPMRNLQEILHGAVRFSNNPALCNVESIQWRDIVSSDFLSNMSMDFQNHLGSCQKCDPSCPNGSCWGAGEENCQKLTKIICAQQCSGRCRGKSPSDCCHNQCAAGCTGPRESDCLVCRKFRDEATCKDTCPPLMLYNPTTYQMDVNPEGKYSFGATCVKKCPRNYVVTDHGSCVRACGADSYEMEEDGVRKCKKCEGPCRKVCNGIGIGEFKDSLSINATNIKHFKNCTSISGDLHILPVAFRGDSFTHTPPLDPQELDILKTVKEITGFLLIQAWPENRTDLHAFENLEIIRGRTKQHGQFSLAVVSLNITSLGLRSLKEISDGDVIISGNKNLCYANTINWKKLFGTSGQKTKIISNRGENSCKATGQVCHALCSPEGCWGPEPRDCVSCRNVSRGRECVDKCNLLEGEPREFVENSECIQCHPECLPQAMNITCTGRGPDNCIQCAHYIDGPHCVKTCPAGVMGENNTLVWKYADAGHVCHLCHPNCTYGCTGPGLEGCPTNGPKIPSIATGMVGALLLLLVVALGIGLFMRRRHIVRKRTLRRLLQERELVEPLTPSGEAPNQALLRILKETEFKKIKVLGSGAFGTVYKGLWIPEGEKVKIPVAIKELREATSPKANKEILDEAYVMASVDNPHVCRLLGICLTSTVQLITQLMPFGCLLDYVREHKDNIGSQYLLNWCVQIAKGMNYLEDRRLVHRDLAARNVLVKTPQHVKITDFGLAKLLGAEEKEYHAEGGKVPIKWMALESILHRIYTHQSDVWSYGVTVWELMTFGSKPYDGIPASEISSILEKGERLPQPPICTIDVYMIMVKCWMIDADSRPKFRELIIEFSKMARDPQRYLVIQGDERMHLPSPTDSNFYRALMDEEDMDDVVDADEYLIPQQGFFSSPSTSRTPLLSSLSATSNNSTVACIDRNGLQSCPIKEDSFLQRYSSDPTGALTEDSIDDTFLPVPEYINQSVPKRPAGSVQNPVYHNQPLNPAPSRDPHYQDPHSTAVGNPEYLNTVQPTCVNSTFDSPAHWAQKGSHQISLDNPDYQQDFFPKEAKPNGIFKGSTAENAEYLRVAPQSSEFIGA
Sequence of human EGFR WT (NIH/3T3 cells, EGF-induced) (P00533 25-1210): as above
T1 sequence (P00533 669-1210 T790M/L858R): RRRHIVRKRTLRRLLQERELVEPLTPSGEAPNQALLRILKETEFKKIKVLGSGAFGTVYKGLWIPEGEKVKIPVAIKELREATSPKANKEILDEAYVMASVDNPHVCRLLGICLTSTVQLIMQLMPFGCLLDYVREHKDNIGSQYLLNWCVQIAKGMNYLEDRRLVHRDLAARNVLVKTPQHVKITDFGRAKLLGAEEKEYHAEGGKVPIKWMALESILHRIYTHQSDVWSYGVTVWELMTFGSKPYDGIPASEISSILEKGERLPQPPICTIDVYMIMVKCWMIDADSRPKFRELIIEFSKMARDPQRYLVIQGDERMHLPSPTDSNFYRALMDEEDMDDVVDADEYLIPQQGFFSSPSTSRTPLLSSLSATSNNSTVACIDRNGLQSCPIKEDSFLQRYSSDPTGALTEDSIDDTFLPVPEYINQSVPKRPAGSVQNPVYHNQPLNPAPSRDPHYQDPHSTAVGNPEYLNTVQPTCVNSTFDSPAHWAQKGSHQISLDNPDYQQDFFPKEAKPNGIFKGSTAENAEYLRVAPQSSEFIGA
Sequence of H3255 (EGFR L858R) (P00533 25-1210 L858R): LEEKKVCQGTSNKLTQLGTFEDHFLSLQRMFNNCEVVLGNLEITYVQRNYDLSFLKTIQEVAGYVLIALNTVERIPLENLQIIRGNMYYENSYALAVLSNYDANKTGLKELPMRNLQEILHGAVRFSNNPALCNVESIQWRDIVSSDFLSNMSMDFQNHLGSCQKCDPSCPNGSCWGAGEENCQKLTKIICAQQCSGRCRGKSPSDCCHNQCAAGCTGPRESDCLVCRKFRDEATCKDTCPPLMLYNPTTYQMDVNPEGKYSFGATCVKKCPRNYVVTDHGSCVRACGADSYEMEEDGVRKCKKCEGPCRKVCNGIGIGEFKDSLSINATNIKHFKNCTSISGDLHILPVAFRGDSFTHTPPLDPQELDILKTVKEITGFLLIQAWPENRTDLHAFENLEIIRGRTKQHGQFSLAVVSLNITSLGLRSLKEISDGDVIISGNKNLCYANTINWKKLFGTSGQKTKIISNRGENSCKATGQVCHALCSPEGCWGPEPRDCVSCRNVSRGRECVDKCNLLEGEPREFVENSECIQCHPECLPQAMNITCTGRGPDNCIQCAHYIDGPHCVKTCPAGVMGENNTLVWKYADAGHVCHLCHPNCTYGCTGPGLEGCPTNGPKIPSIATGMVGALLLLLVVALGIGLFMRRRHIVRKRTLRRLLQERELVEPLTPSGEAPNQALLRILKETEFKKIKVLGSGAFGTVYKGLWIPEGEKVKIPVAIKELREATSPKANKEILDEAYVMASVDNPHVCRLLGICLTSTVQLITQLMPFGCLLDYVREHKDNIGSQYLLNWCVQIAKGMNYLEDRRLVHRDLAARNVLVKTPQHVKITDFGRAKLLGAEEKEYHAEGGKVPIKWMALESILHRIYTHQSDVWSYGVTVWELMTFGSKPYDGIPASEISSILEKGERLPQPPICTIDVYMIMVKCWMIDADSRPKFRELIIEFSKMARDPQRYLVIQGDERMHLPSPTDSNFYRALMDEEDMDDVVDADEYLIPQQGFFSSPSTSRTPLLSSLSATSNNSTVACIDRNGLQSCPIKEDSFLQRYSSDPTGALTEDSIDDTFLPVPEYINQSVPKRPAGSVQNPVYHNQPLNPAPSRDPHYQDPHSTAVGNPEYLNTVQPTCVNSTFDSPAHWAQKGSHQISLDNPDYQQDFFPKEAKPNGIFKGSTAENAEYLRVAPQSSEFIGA

Structure (SMILES) | IC50 [1] [µM] | IC50 (H1975 (EGFR L858/T790M)) [µM] | IC50 [2] [µM] | IC50 [3] [µM] | IC50 (EGFR(L858R/T790M); [4]) [µM] | IC50 (EGFR(L858R/T790M); [5]) [µM] | IC50 (H3255 (EGFR L858R)) [µM] | IC50 (HEKn (EGFR WT)) [µM]
C=CC(=O)N1CCCC[C@@H](n2c(NC(=O)c3cnnc(C)c3)nc3cc(CN4CCCC4)cc(C)c32)C1 [Example 17-161] | 0.009 | 0.008 | 0.006 | 0.281 | < 0.001 | 0.008 | 0.009 | 0.269
C=CC(=O)N1CCCC[C@@H](n2c(NC(=O)c3ccnc(C)c3)nc3cccc(Cl)c32)C1 [Example 17-17] | 0.005 | 0.003 | 0.008 | 0.211 | < 0.001 | 0.004 | 0.008 | 0.176
Cc1cc(C(=O)Nc2nc3cccc(Cl)c3n2[C@@H]2CCCCN(C(=O)/C=C/CN3CC[C@H](F)C3)C2)ccn1 [Example 3-2] | 0.006 | 0.009 | 0.006 | 0.303 | < 0.001 | 0.007 | 0.011 | 0.72
Cc1cccc2nc(NC(=O)c3cc(F)c(F)c(F)c3)n(C3CCCCN(C(=O)/C=C/CN(C)C)C3)c12 (stereo not shown) [Example 17-33] | 0.005 | 0.005 | 0.002 | 0.224 | < 0.001 | 0.008 | 0.065 | 0.259
CN(C)C/C=C/C(=O)N1CCCC[C@@H](n2c(NC(=O)c3ccnnc3)nc3cccc(Cl)c32)C1 [Example 17-16] | 0.017 | 0.01 | 0.015 | 0.282 | < 0.001 | 0.007 | 0.028 | 0.295
Cc1cc(C(=O)Nc2nc3cccc(Cl)c3n2[C@@H]2CCCCN(C(=O)/C=C/CN3CCC3)C2)ccn1 [Example 3-12] | 0.123 | 0.186 | 0.05 | 1.13 | 0.011 | 0.133 | 0.2 | > 10
Cc1cc(C(=O)Nc2nc3cccc(Cl)c3n2[C@@H]2CCCCN(C(=O)/C=C/CN3CC[C@@H](F)C3)C2)ccn1 [Example 3-1] | 0.004 | 0.006 | 0.003 | 0.235 | < 0.001 | 0.005 | 0.007 | 0.34
Cc1cccc2nc(NC(=O)c3ccncn3)n(C3CCCCN(C(=O)/C=C/CN(C)C)C3)c12 (stereo not shown) [Example 17-37] | 0.042 | 0.128 | 0.032 | 1.65 | 0.005 | 0.062 | 0.135 | > 10
Cc1cccc2nc(NC(=O)c3ccnnc3)n([C@@H]3CCCCN(C(=O)/C=C/CN(C)C)C3)c12 [Example 17-95] | 0.002 | 0.003 | 0.002 | 0.026 | < 0.001 | 0.002 | 0.003 | 0.127
COc1cc(C(=O)Nc2nc3cccc(C)c3n2C2CCCCN(C(=O)/C=C/CN(C)C)C2)ccn1 (stereo not shown) [Example 17-48] | 0.004 | 0.01 | 0.005 | 0.122 | < 0.001 | 0.007 | 0.007 | 0.38
Cc1cccc2nc(NC(=O)c3ccccc3)n(C3CCCCN(C(=O)/C=C/CN(C)C)C3)c12 (stereo not shown) [Example 17-40] | 0.008 | 0.007 | 0.017 | 0.49 | < 0.001 | 0.007 | 0.13 | 0.76
C=CC(=O)N1CCC[C@@H](n2c(NC(=O)c3cccc(C(F)(F)F)c3)nc3cc(COCCOC)ccc32)C1 [Example 17-124] | 0.023 | 0.022 | 0.271 | > 10 | 0.008 | 0.2 | 0.49 | > 10
Cc1ccc(C(=O)Nc2nc3cccc(C)c3n2C2CCCCN(C(=O)/C=C/CN(C)C)C2)cn1 (stereo not shown) [Example 17-47] | 0.003 | 0.017 | 0.002 | 0.052 | < 0.001 | 0.009 | 0.004 | 0.186
C=CC(=O)N1CCCC[C@@H](n2c(NC(=O)c3ccccc3)nc3cccc(CN4CCS(=O)(=O)CC4)c32)C1 [Example 17-132] | 0.012 | 0.009 | 0.047 | 2.87 | 0.001 | 0.041 | 0.108 | 2.85
